Each block holds one compound with its values, some of them ahead of it.
Tests used:
[1] = tested on: SMN2 minigene (full length SMN2 minigene mRNA containing SMN2 exon 7); test: SMN2 minigene mRNA splicing RT-qPCR assay in cultured cells; type: cell-based, human; settings: Homo sapiens, HEK293-H; HEK293H cells stably transfected with SMN2-A minigene; 24 hours; 7-point concentration curve; 1.5-fold relative to vehicle-treated cells; read-out: EC1.5x for production of full length SMN2 mRNA
Procedure, shortened: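 HEK293H cells stably carrying the SMN2-A minigene treated 24 h at 37° C with compound (DMSO, 200× stock), then lysed. Multiplex RT-qPCR (SMN primers 0.4 μM final; 40 cycles) measures full-length exon 7-containing minigene mRNA, normalized to GAPDH and to vehicle; EC1.5x derived and binned by stars.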

Smn protein = Smn protein assay in cultured cells (SMN HTRF); type: cell-based, human; settings: 48 hours; for maximum fold (Fold) increase of Smn protein: SMA patient fibroblast cells, 7-point concentration data, fold increase relative to vehicle control (SMN HTRF); for EC1.5x (concentration giving 1.5-fold Smn protein increase): SMA Type 1 patient fibroblast cells (GM03813), 7-point concentration curve, SMN HTRF, concentration producing 1.5 times Smn protein vs DMSO vehicle control, read-out: EC1.5x for Smn protein expression
Procedure, shortened: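 Lysates in RIPA with protease inhibitors are incubated overnight at room temperature with HTRF anti-SMN antibodies. EC1.5x is derived from fold increase in ΔF over vehicle.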

SMILES: Cc1csc(-c2cc3ccc(N4C[C@@H](C)NC[C@@H]4C)cc3oc2=O)n1 [Compound 299, 7-[(2S,5R)-2,5-dimethylpiperazin-1-yl]-3-(4-methyl-1,3-thiazol-2-yl)-2H-chromen-2-one]
- EC (1.5-fold) [1]: 1 to 3 µM
- melting point: 184 to 190 °C
- maximum fold (Fold) increase of Smn protein (Smn protein): * (maximum fold increase of ≤1.2)

SMILES: Cc1cn2cc(-c3cc4ccc(CCCNC(CO)CO)cc4oc3=O)nc2c(C)n1 [Compound 882, 7-{3-[(1,3-dihydroxypropan-2-yl)amino]propyl}-3-(6,8-dimethylimidazo[1,2-a]pyrazin-2-yl)-2H-chromen-2-one]
- EC (1.5-fold) [1]: < 0.1 µM
- melting point: 195 to 199 °C
- EC1.5x (concentration giving 1.5-fold Smn protein increase) (Smn protein): < 300 nM
- maximum fold (Fold) increase of Smn protein (Smn protein): **** (fold increase between >1.5 and ≤1.65)

SMILES: O=c1oc2cc(N3CCN(CCO)CC3)ccc2cc1-c1cc2ccccn2n1 [Compound 190, 7-[4-(2-hydroxyethyl)piperazin-1-yl]-3-(pyrazolo[1,5-a]pyridin-2-yl)-2H-chromen-2-one]
- EC (1.5-fold) [1]: 1 to 3 µM
- melting point: 201 to 205 °C
- maximum fold (Fold) increase of Smn protein (Smn protein): ** (fold increase between >1.2 and ≤1.35)

SMILES: CN1CCN(c2ccc3cc(-c4cn(C)c5ccccc45)c(=O)oc3c2)CC1 [Compound 259, 3-(1-methyl-1H-indol-3-yl)-7-(4-methylpiperazin-1-yl)-2H-chromen-2-one]
- EC (1.5-fold) [1]: 1 to 3 µM
- melting point: 185 to 187 °C
- maximum fold (Fold) increase of Smn protein (Smn protein): * (maximum fold increase of ≤1.2)

SMILES: CCc1nc(C)cn2cc(-c3cc4ccc(N5CCN(C)CC5)cc4oc3=O)nc12 [Compound 830, 3-(8-ethyl-6-methylimidazo[1,2-a]pyrazin-2-yl)-7-(4-methylpiperazin-1-yl)-2H-chromen-2-one]
- EC (1.5-fold) [1]: < 0.1 µM
- melting point: 210 to 215 °C
- EC1.5x (concentration giving 1.5-fold Smn protein increase) (Smn protein): < 300 nM
- maximum fold (Fold) increase of Smn protein (Smn protein): ***** (fold increase >1.65)

Second part, led by results:

- melting point: 253 to 262 °C
SMILES: O=c1oc2cc(N3CCCNCC3)ccc2cc1-c1cn2ccc(C(F)(F)F)cc2n1 [Compound 275, 7-(1,4-diazepan-1-yl)-3-[7-(trifluoromethyl)imidazo[1,2-a]pyridin-2-yl]-2H-chromen-2-one]
- EC (1.5-fold) [1]: 0.3 to 1 µM
- maximum fold (Fold) increase of Smn protein (Smn protein): * (maximum fold increase of ≤1.2)

- melting point: 218 to 220 °C
SMILES: Cc1ccc2nc(-c3cc4ccc(N5CCCNCC5)cc4oc3=O)cn2c1 [Compound 176, 7-(1,4-diazepan-1-yl)-3-(6-methylimidazo[1,2-a]pyridin-2-yl)-2H-chromen-2-one]
- EC (1.5-fold) [1]: 1 to 3 µM
- maximum fold (Fold) increase of Smn protein (Smn protein): * (maximum fold increase of ≤1.2)

- melting point: 250 to 252 °C
SMILES: C[C@@H]1CN(c2ccc3cc(-c4cn5cnccc5n4)c(=O)oc3c2)C[C@H](C)N1 [Compound 459, 7-[(3R,5S)-3,5-dimethylpiperazin-1-yl]-3-(imidazo[1,2-c]pyrimidin-2-yl)-2H-chromen-2-one]
- EC (1.5-fold) [1]: < 0.1 µM
- EC1.5x (concentration giving 1.5-fold Smn protein increase) (Smn protein): 3000 to 10000 nM
- maximum fold (Fold) increase of Smn protein (Smn protein): *** (fold increase between >1.35 and ≤1.5)

- melting point: 252 to 254 °C
SMILES: CN1CCCN(c2ccc3cc(-c4cn5cccnc5n4)c(=O)oc3c2)CC1 [Compound 118, 3-(imidazo[1,2-a]pyrimidin-2-yl)-7-(4-methyl-1,4-diazepan-1-yl)-2H-chromen-2-one]
- EC (1.5-fold) [1]: 0.1 to 0.3 µM
- EC1.5x (concentration giving 1.5-fold Smn protein increase) (Smn protein): < 300 nM
- maximum fold (Fold) increase of Smn protein (Smn protein): ***** (fold increase >1.65)

- melting point: 246 to 252 °C
SMILES: Cc1cn2cc(-c3cc4ccc(N5CCN(CCO)CC5)cc4oc3=O)nc2cn1 [Compound 837, 7-[4-(2-hydroxyethyl)piperazin-1-yl]-3-(6-methylimidazo[1,2-a]pyrazin-2-yl)-2H-chromen-2-one]
- EC (1.5-fold) [1]: < 0.1 µM
- EC1.5x (concentration giving 1.5-fold Smn protein increase) (Smn protein): < 300 nM
- maximum fold (Fold) increase of Smn protein (Smn protein): ***** (fold increase >1.65)

Reference: patent publication USRE47689E1, “Compounds for treating spinal muscular atrophy” (PTC Therapeutics, Inc., priority 2011, dated 2019)
